Measured values reported in PMC9033141, “Beta and Gamma Amino Acid-Substituted Benzenesulfonamides as Inhibitors of Human Carbonic Anhydrases” (Pharmaceuticals, 2022).
Like-named read-outs stand apart in the source and are kept apart here.

Legend:
[1] = biological target: T1, CAVB (Homo sapiens, UniProt Q9Y2D0); test: Fluorescent thermal shift assay (FTSA), CAVB; type: binding; settings: FTSA, pH 7.0, 37 °C; read-out: Observed Dissociation Constant (Kd_obs), CAVB
T1 construct: made in house; host or cells: E. coli
T1 sequence (Q9Y2D0 34-317): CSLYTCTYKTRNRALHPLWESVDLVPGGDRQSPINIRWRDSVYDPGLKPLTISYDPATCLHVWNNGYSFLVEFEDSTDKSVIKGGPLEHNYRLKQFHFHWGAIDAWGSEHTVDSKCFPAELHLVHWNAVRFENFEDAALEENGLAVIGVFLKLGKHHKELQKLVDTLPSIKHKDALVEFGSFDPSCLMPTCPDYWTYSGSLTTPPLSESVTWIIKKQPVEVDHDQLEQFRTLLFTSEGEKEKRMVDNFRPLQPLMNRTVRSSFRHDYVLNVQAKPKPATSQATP
Method: (§1) Human CA isozymes were expressed in E. coli (CAI, II, III, IV, VA, VB, VII, XII, XIII, XIV) or mammalian cells (CAVI and CAIX), chromatographically purified following the published protocols [47], and stored at −80 °C. The protein concentration was determined by UV absorption at 280 nm using Beer–Lambert law.
(§2) The QIAGEN Rotor-Gene Q was used to carry out the experiments, with a blue channel used for excitation (365 nm) and detection (460 nm). FTSA in this case relies on an extrinsic probe, 8-anilino-1-naphthalenesulfonate (ANS), to detect the fluorescence increase during protein denaturation, from which protein melting temperature (Tm) can be determined. […] The observed affinity of ligands for CAs was determined by plotting the Tm as a function of ligand concentration and then fitting a curve as described previously [48]. […] Samples were heated from 25 °C to 99 °C at the speed of 1 °C/min.
(§3) The intrinsic thermodynamic parameters were calculated as described in [40]. The intrinsic reaction of inhibitor binding to CA is shown in Equation (1). […] It is known that CA proteins bind sulfonamides only when water molecules are coordinated to the Zn(II) ion, and sulfonamides only bind to CA proteins when their amino group is deprotonated (confirmed by neutron crystallography [53, 54, 55]):(1) CA Zn^II−H2O+RSO2NH^−⇄ CA Zn^II−NH SO2R+H2O
(§4) When calculating Kd_int values, these protein and ligand fractions from Equation (1) have to be accounted for (Equations (2) and (3)). The intrinsic dissociation constant is calculated by multiplying Kd_obs value by the corresponding fractions of protein and ligand (Equation (4)). (2) fRSO2NH^−=10^pH−pKa_RSO2NH2/1+10^pH−pKa_RSO2NH2 (3) fCAZnH2O=1−10^pH−pKa_CAZnH2O/1+10^pH−pKa_CAZnH2O (4) Kd_int=Kd_obs×fRSO2NH^−×fCAZnH2O (5) ΔGint0=RTlnKd_int
(§5) The intrinsic standard Gibbs energy changes upon binding were calculated using Equation (5). Here, R—universal ideal gas constant (8.3144 J/mol·K), T—absolute temperature (310.15 K).

[2] = biological target: T2, CAIX (Homo sapiens, UniProt Q16790); test: biochemical; type: binding; settings: FTSA, pH 7.0, 37 °C; read-out: Observed Dissociation Constant (Kd_obs), CAIX
T2 construct: made in house

[3] = biological target: T3, CAIII (Homo sapiens, UniProt P07451); test: Fluorescent thermal shift assay (FTSA), CAIII; type: binding; settings: FTSA, pH 7.0, 37 °C; read-out: Observed Dissociation Constant (Kd_obs), CAIII
T3 construct: made in house; host or cells: E. coli
T3 sequence (P07451 whole entry): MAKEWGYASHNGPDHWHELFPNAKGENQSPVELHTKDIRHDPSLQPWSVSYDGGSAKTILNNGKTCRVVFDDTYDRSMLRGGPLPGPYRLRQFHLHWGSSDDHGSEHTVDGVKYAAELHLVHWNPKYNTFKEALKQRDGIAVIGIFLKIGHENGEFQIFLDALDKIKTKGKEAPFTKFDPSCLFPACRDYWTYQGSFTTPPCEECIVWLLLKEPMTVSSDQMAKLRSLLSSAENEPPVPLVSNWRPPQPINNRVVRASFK
Method: as §1, §2, §3, §4, §5

[4] = biological target: T4, CAII (Homo sapiens, UniProt P00918); test: biochemical; type: binding; settings: FTSA, pH 7.0, 37 °C; read-out: Observed Dissociation Constant (Kd_obs), CAII
T4 construct: made in house; host or cells: E. coli
Method: as §1, §2
(§6) The intrinsic thermodynamic parameters were calculated as described in [40]. The intrinsic reaction of inhibitor binding to CA is shown in Equation (1).
as §4, §5

[5] = biological target: T5, CAI (Homo sapiens, UniProt P00915); test: biochemical; type: binding; settings: FTSA, pH 7.0, 37 °C; read-out: Observed Dissociation Constant (Kd_obs), CAI
T5 construct: made in house; host or cells: E. coli
T5 sequence (P00915 whole entry): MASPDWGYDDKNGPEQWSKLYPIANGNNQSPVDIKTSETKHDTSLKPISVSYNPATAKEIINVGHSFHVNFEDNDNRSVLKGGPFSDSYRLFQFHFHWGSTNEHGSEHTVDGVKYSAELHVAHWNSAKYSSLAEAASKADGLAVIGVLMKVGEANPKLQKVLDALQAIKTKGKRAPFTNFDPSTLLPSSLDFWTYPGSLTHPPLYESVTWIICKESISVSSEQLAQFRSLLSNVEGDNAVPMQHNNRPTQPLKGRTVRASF
Method: as §1, §2, §6, §4, §5

[6] = biological target: T6, CAXIV (Homo sapiens, UniProt Q9ULX7); test: Fluorescent thermal shift assay (FTSA), CAXIV; type: binding; settings: FTSA, pH 7.0, 37 °C; read-out: Observed Dissociation Constant (Kd_obs), CAXIV;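 note: recombinant human CA XIV from E. coli, ANS-based thermal shift: Kd_obs fitted from melting temperature versus ligand concentration, ΔGint from Kd_obs corrected for deprotonated sulfonamide and Zn-water fractions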
T6 construct: made in house; host or cells: E. coli
T6 sequence (Q9ULX7 16-337): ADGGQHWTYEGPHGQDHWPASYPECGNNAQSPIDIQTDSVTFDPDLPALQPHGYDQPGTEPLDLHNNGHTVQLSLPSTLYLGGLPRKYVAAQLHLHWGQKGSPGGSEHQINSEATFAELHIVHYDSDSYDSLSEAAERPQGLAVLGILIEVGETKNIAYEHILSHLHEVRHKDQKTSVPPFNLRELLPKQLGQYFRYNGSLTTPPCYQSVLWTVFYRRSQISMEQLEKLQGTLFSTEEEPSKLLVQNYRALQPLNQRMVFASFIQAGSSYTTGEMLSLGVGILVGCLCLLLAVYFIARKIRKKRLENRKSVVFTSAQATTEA
Method: as §1, §2, §3, §4, §5

[7] = biological target: T7, CAXII (Homo sapiens, UniProt O43570); test: biochemical; type: binding; settings: FTSA, pH 7.0, 37 °C; read-out: Observed Dissociation Constant (Kd_obs), CAXII
T7 construct: made in house; host or cells: E. coli
T7 sequence (O43570 25-354): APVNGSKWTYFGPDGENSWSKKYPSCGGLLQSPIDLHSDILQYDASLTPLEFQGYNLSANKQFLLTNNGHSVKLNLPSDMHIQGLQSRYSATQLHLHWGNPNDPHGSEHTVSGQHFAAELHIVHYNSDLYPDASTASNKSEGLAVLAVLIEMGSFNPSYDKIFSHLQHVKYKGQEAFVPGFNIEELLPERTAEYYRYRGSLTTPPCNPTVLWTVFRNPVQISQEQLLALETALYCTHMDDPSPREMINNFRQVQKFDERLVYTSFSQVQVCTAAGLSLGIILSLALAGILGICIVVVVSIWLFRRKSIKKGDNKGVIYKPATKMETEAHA
Method: as §1, §2, §6, §4, §5

[8] = biological target: T8, CAVI (Homo sapiens, UniProt P23280); test: Fluorescent thermal shift assay (FTSA), CAVI; type: binding; settings: FTSA, pH 7.0, 37 °C; read-out: Observed Dissociation Constant (Kd_obs), CAVI;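 note: human CAVI expressed in mammalian cells, ANS fluorescence tracked during thermal unfolding, melting temperature fitted against ligand concentration, intrinsic values corrected for deprotonated sulfonamide and Zn-bound water fractions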
T8 construct: made in house
T8 sequence (P23280 21-290 limits assumed): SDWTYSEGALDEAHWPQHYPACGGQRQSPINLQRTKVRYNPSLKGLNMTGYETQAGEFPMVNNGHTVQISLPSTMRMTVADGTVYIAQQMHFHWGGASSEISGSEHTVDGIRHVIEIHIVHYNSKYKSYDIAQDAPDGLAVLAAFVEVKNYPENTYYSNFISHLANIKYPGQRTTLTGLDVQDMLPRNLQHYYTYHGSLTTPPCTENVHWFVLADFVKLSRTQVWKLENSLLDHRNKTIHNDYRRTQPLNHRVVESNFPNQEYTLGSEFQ
Method: as §1, §2, §3, §4, §5

[9] = biological target: T9, CAVA (Homo sapiens, UniProt P35218); test: Fluorescent thermal shift assay (FTSA), CAVA; type: binding; settings: FTSA, pH 7.0, 37 °C; read-out: Observed Dissociation Constant (Kd_obs), CAVA
T9 construct: made in house; host or cells: E. coli
T9 sequence (P35218 39-305): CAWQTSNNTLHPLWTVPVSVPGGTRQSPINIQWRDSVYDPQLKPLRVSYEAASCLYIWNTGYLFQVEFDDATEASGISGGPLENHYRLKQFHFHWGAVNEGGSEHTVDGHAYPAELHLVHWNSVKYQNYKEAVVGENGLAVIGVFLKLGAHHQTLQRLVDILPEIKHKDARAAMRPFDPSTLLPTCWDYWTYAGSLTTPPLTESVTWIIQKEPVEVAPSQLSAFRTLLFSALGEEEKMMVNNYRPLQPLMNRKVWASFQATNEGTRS
Method: as §1, §2, §3, §4, §5

[10] = biological target: T10, CAIV (Homo sapiens, UniProt P22748); test: Fluorescent thermal shift assay (FTSA), CAIV; type: binding; settings: FTSA, pH 7.0, 37 °C; read-out: Observed Dissociation Constant (Kd_obs), CAIV;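 note: recombinant human enzyme, thermal denaturation followed by ANS fluorescence, melting temperature versus ligand concentration fitted for Kd_obs, intrinsic value corrected for deprotonated sulfonamide and Zn-bound water fractions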
T10 construct: made in house; host or cells: E. coli
T10 sequence (P22748 19-312): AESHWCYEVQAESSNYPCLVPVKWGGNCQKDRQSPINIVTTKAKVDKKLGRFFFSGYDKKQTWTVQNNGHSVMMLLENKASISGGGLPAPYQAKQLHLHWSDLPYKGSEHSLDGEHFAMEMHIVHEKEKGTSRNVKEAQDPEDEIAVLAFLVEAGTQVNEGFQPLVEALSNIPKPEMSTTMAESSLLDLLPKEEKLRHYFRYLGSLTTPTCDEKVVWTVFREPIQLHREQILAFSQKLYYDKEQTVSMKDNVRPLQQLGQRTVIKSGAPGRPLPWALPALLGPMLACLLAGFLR
Method: as §1, §2, §3, §4, §5

[11] = biological target: T11, CAVII (Homo sapiens, UniProt P43166); test: Fluorescent thermal shift assay (FTSA), CAVII; type: binding; settings: FTSA, pH 7.0, 37 °C
T11 construct: made in house; host or cells: E. coli
T11 sequence (P43166 whole entry): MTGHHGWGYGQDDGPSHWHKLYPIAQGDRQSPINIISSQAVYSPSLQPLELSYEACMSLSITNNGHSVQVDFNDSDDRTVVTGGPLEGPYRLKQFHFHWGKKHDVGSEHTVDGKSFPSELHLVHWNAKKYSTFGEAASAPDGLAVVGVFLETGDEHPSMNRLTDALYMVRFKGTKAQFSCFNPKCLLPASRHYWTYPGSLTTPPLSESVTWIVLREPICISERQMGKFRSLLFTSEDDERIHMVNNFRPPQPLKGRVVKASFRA
Method: as §1, §2, §3, §4, §5

[12] = biological target: CAXIII (Homo sapiens, UniProt Q8N1Q1); test: biochemical; settings: Observed Dissociation Constant (Kd_obs), FTSA, pH 7.0, 37 °C;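 note: recombinant human CAXIII melting temperature tracked by ANS fluorescence in thermal shift assay, Tm fitted against ligand concentration, intrinsic value corrects Kd for deprotonated sulfonamide and Zn-bound water fractions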
CAXIII, sequence (Q8N1Q1 whole entry): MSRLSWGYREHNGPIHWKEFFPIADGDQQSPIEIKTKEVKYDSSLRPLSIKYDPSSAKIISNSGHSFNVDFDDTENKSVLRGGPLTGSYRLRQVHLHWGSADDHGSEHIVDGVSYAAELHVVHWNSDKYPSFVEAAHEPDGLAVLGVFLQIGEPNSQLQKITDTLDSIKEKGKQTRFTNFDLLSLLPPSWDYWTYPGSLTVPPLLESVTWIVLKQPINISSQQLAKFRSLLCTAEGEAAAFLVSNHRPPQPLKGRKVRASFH
Method: as §1, §2, §6, §4, §5

[13] = read-out: Observed Dissociation Constant (Kd_obs), CAVII
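Throughout, for Observed Dissociation Constant (Kd obs), CAXII: recombinant CAXII made in E. coli, ANS-fluorescence thermal shift with affinity fitted from Tm versus ligand concentration, intrinsic energy from Kd_obs corrected for deprotonated sulfonamide and Zn-water fractions.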

Row | Compound | Kd [1] [nM] | Kd [2] [nM] | Kd [3] [nM] | Kd [4] [nM] | Kd [5] [nM] | Kd [6] [nM] | Kd [7] [nM] | Kd [8] [nM] | Kd [9] [nM] | Kd [10] [nM] | Kd [11, 13] [nM] | Kd [12] [nM] | melting point [°C] | Kd ([11]; Observed Dissociation Constant (Kd_obs), CAVII) [nM]
1 | NS(=O)(=O)c1ccc(NCC(CC(=O)NN=Cc2ccccc2)C(=O)NN=Cc2ccccc2)c(Cl)c1 (stereo not drawn) [Compound 6b, 4-((2-(2-(Benzylidene)hydrazine-1-carbonyl)-4-(2-(benzylidene)hydrazineyl)-4-oxobutyl)amino)-3-chlorobenzenesulfonamide] | 130 | 100 | ≥ 200000 | 240 | 1400 | 140 | 7900 | 670 | 20000 | 4200 | 290 | 180 | 212 to 213 | 
2 | NS(=O)(=O)c1ccc(NCC(CC(=O)NN=Cc2ccc(O)cc2)C(=O)NN=Cc2ccc(O)cc2)c(Cl)c1 (stereo not drawn) [Compound 9b, 3-Chloro-4-((2-(2-(4-hydroxybenzylidene)hydrazine-1-carbonyl)-4-(2-(4-hydroxybenzylidene)hydrazineyl)-4-oxobutyl)amino)benzenesulfonamide] | 830 | 100 | ≥ 200000 | 200 | 670 | 130 | 14000 | 670 | 2900 | 1000 |  | 250 | 226 to 227 | 250
3 | NS(=O)(=O)c1ccc(NCC(CC(=O)NN=Cc2ccc(C(=O)O)cc2)C(=O)NN=Cc2ccc(C(=O)O)cc2)cc1 (stereo not drawn) [Compound 18a, 4,4′-(((2-(((4-Sulfamoylphenyl)amino)methyl)succinyl)bis(hydrazin-2-yl-1-ylidene))bis(methaneylylidene))dibenzoic acid] | 14000 | 1400 | ≥ 200000 | 5000 | 20000 | 5000 | 20000 | 33000 | 20000 | 33000 | 6700 | 25000 | 308 to 309 | 
4 | NS(=O)(=O)c1ccc(NCC(CC(=O)NN=Cc2ccc(C(=O)O)cc2)C(=O)NN=Cc2ccc(C(=O)O)cc2)c(Cl)c1 (stereo not drawn) [Compound 18b, 4,4′-(((2-(((2-Chloro-4-sulfamoylphenyl)amino)methyl)succinyl)bis(hydrazin-2-yl-1-ylidene))bis(methaneylylidene))dibenzoic acid] | 6700 | 250 | ≥ 200000 | 1300 | 5000 | 1000 | 13000 | 20000 | 6700 | 13000 | 330 | 1800 | 294 to 295 | 
5 | Cc1ccc(C)n1NC(=O)CC(CNc1ccc(S(N)(=O)=O)cc1Cl)C(=O)Nn1c(C)ccc1C (stereo not drawn) [Compound 19b, 2-(((2-Chloro-4-sulfamoylphenyl)amino)methyl)-N^1,N^4-bis(2,5-dimethyl-1H-pyrrol-1-yl)succinamide] | 1400 | 56 | ≥ 200000 | 50 | 290 | 25 | 1300 | 5000 | 20000 | 1800 | 200 | 130 | 232 to 233 | 
6 | Cc1cc(C)n(C(=O)CC(CNc2ccc(S(N)(=O)=O)cc2Cl)C(=O)n2nc(C)cc2C)n1 (stereo not drawn) [Compound 20, 3-Chloro-4-((4-(3,5-dimethyl-1H-pyrazol-1-yl)-2-(3,5-dimethyl-1H-pyrazole-1-carbonyl)-4-oxobutyl)amino)benzenesulfonamide] | 3300 | 100 | ≥ 200000 | 500 | 5000 | 330 | 13000 | 20000 | 22000 | 2000 | 10000 | 2900 | 201 to 202 | 
7 | CNC(=S)NNC(=O)CC(CNc1ccc(S(N)(=O)=O)cc1)C(=O)NNC(=S)NC (stereo not drawn) [Compound 22a, 2,2′-(2-(((4-Sulfamoylphenyl)amino)methyl)succinyl)bis(N-methylhydrazine-1-carbothioamide)] | 25000 | 330 | ≥ 200000 | 2500 | 50000 | 3300 | 11000 | 13000 | 33000 | 6700 | 10000 | 33000 | 192 to 193 | 
8 | CNC(=S)NNC(=O)CC(CNc1ccc(S(N)(=O)=O)cc1Cl)C(=O)NNC(=S)NC (stereo not drawn) [Compound 22b] | ≥ 200000 | 100 | ≥ 200000 | 400 | 3300 | 130 | 2200 | 3300 | 6700 | 2000 | 670 | 1700 | 212 to 213 | 
9 | NS(=O)(=O)c1ccc(NCC(CC(=O)NNC(=S)Nc2ccccc2)C(=O)NNC(=S)Nc2ccccc2)c(Cl)c1 (stereo not drawn) [Compound 23b, 2,2′-(2-(((2-Chloro-4-sulfamoylphenyl)amino)methyl)succinyl)bis(N-phenylhydrazine-1-carbothioamide)] | 1100 | 33 | 15000 | 50 | 67 | 50 | 50 | 1000 | 20000 | 1000 | 110 | 400 | 158 to 159 | 
10 | NS(=O)(=O)c1ccc(NCC(Cc2n[nH]c(=S)n2-c2ccccc2)c2n[nH]c(=S)n2-c2ccccc2)c(Cl)c1 (stereo not drawn) [Compound 25b, 4-((2,3-bis(4-Phenyl-5-thioxo-4,5-dihydro-1H-1,2,4-triazol-3-yl)propyl)amino)-3-chlorobenzenesulfonamide] | 1400 | 25 | 5000 | 25 | 170 | 25 | 630 | 200 | 38000 | 1400 | 170 | 400 | 175 to 176 | 
11 | Cc1csc(N(CCC(=O)NN=Cc2ccccc2)c2ccc(S(N)(=O)=O)cc2)n1 [Compound 30, 4-((3-(2-Benzylidenehydrazineyl)-3-oxopropyl)(4-methylthiazol-2-yl)amino)benzenesulfonamide] | 11000 | 290 | ≥ 200000 | 4000 | 3300 | 6700 | 110000 | 67000 | ≥ 200000 | 27000 | 100000 | 8300 | 170 to 171 | 
12 | CCOC(=O)c1sc(N(CCC(=O)NN=Cc2ccccc2)c2ccc(S(N)(=O)=O)cc2)nc1C [Compound 34, Ethyl 2-((3-(2-Benzylidenehydrazineyl)-3-oxopropyl)(4-sulfamoylphenyl)amino)-4-methylthiazole-5-carboxylate] | 120 | 170 | ≥ 200000 | 150 | 670 | 1000 | 14000 | 10000 | ≥ 200000 | 1000 | 250 | 220 | 195 to 196 | 
